Where a SMILES comes first, the peptide text is derived from it. Bridges are numbered along the chain shown (N, C = ends). [ ]: non-standard residue; d: D form. S5 = C=CCCC[C@](C)(N)C(=O)O
Key:
Nur77-PPARγ complex = target: T1, Nur77-PPARγ complex (Homo sapiens, UniProt P22736); test: NanoBiT assay of Nur77-PPARγ complex formation in HEK293T cells; assay type: cell-based; details: 1 × 10^−5 M peptide, 1 h, n = 3
T1 construct: expressed in transfected cells; host or cells: HEK293T
Description: HEK293T cells were seeded in a poly‐d‐lysine‐coated black 96‐well cell culture plate at 10 000 cells per well in 100 µL culture medium. The next day, the master mix of 100 ng receptor construct containing the PPARγ‐LargeBit and SmallBit‐Nur77 plasmids (w/w, 50 ng:50 ng) was diluted in Opti‐MEM Medium (Gibco, 11058‐021), then P3000 Reagent was added. Meanwhile, 0.15 µL Lipofectamine 3000 reagent (ThermoFisher, L3000015) was added to 5 µL Opti‐MEM Medium. Subsequently, diluted DNA was added to Lipofectamine 3000 reagent (V/V, 1:1) and incubated for 15 min at room temperature. A mixture containing the above plasmids and Lipofectamine 3000 was prepared and added to each well. After 24 h, the cells were treated with 1 × 10^−5 M peptides (TAT, T‐CY14, S‐CY14, and ST‐CY14) or variable concentrations of ST‐CY‐14 (0.1/0.2/0.5/1/2/5/10/20/40 × 10^−6 M) for 1 h. The culture medium was replaced with 90 µL Tyrode's solution (Solarbio, T1420). Then, 10 µL furimazine (5 × 10^−5 M) was added to each well and the luminescence signal was measured every 86 s for 1 h at 37 °C.

MCF7 cells [1] = test: Scratch (wound-healing) assay; assay type: cell-based, human; details: MCF7, 12 h
Description: MCF7 and MDA‐MB‐231 cells were seeded in 6‐well plates and cultured overnight. Once the cell density reached 90%, a line was scratched along the center of the 6‐well plate and images were taken randomly in the scratch domain under a microscope. The cells in each well were then treated with peptides of varying concentrations for 12 h, after which images were taken again in the scratch domain. The formula used to calculate the scratch healing rate was as follows: Scratch healing rate (%) = [(Scratch area at 0 h – Scratch area at 12 h) […] Scratch area at 0 h] × 100%.

MCF7 cells [2] = test: Transwell cell migration analysis; assay type: cell-based, human; details: MCF7, 12 h
Description: 600 µL DMEM complete medium was added to the lower chamber of the Transwell. Next, 2×10^4 cells in 100 µL DMEM medium, containing 1, 2, 5, 10, or 2 × 10^−5 M peptides, were added to the upper chamber of the Transwell. The cells were incubated for 12 h at 37 °C and 5% CO2. After the incubation period, the medium was discarded, and the chamber was washed with PBS. The cells were then fixed with 4% paraformaldehyde for 20 min. The upper chamber was subsequently soaked in crystal violet for 20 min, washed with PBS, and observed under a microscope for analysis.

Solubility test in PBS = assay type: physicochemical; details: PBS buffer, aqueous buffer, 1 mg in 50 µL, gradient diluted from 20 to 0.078125 mg mL^−1, OD at 600 nm (turbidity), plate reader
Description: Mix 1 mg ST‐CY14 or Csn‐B (Shanghai Sunny Biotech) in 50 µL PBS buffer, and then transfer 40 µL the suspension to a 96‐well plate. The suspension was gradient diluted from 20 to 0. 07 8125 mg mL^−1. OD values were measured at 600 nm on a Cytation 5 (Biotek, USA) plate reader. PBS was set as a blank control.

MCF7 cells [3] = test: Western blot of Nur77, CD36 and FABP4; assay type: cell-based, human
Description: MCF7 and MDA‐MB‐231 cells were treated with various concentrations of peptide. The cells were then collected and lysed in NP40 lysis buffer. Total protein was quantified using a BCA assay kit (Beyotime, P0010S). The proteins were separated by SDS‐PAGE and transferred onto a PVDF membrane. The PVDF membrane was blocked in TBST containing 5% non‐fat milk, and then incubated with primary antibodies overnight at 4 °C. Subsequently, membranes were incubated with horseradish peroxidase‐conjugated antirabbit or antimouse IgG secondary antibody for 1 h at room temperature. The membranes were analyzed by a Tanon‐5200 Multi Gel Imaging Analysis System (Tanon) and quantified by ImageJ software.

α-chymotrypsin [4] = target: α-chymotrypsin (Bos taurus, UniProt P00766); test: Protease stability in α-chymotrypsin solution; assay type: in vitro ADME; details: α-chymotrypsin, PBS pH 7.4, room temperature
Description: (§1) The peptides were dissolved in PBS (pH 7.4) to a final concentration of 1 × 10^−3 M. α‐Chymotrypsin was dissolved in PBS (5 × 10^−2 M, containing 2 × 10^−3 M CaCl2, pH 7.4) to a final concentration of 0.5 ng µL^−1. Subsequently, 100 µL peptides were incubated with α‐chymotrypsin (1 mL) at room temperature, and 100 µL of the digestion mixture was collected at different times (5/10/20/30/60/120/240/480 min) and added to a centrifuge tube containing 20 µL of 1 M HCl to quench the enzymatic reaction. The solution of α‐Chymotrypsin peptide fragments was monitored by analytical HPLC to determine the fraction of protease degradation at 214 nm.

α-chymotrypsin [5] = test: Protease stability in α-chymotrypsin solution; assay type: in vitro ADME; details: α-chymotrypsin solution; α-chymotrypsin 0.5 ng µL^−1 in PBS (5 × 10^−2 M, 2 × 10^−3 M CaCl2, pH 7.4); 100 µL of 1 × 10^−3 M peptide + 1 mL enzyme; room temperature; 5-480 min; quenched with 1 M HCl; analytical HPLC at 214 nm
Description: as §1

T1 sequence (P22736 whole entry, one chain of several): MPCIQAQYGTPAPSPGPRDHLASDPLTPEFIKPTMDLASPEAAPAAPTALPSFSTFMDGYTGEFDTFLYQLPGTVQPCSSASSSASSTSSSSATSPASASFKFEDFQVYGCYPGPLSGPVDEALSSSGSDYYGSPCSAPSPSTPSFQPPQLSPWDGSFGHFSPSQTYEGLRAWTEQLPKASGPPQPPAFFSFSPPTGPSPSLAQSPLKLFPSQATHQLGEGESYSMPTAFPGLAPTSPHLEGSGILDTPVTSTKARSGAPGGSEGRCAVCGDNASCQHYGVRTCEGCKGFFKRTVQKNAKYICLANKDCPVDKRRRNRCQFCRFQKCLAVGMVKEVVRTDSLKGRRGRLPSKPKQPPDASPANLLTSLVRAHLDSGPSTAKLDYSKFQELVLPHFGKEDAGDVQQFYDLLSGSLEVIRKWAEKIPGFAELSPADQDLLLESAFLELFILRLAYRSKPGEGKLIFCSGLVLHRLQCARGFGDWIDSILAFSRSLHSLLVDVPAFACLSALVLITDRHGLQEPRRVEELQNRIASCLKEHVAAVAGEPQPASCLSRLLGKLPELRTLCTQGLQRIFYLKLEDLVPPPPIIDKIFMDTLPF

For C[C@@H](O)[C@@H]1NC(=O)[C@H](CCCNC(=N)N)NC(=O)[C@H](CCCNC(=N)N)NC(=O)[C@@](C)(NC(=O)[C@H](Cc2ccccc2)NC(=O)CNC(=O)[C@H](CCCCN)NC(=O)[C@H](CS)NC(=O)CNC(=O)[C@H](CCC(=O)O)NC(=O)[C@@H](N)CS)CCCC=CCCC[C@@](C)(C(=O)N[C@@H](CCCNC(=N)N)C(=O)N[C@@H](Cc2ccc(O)cc2)C(=O)N[C@@H](Cc2ccc(O)cc2)C(=O)NCC(=O)N[C@@H](CCCNC(=N)N)C(=O)N[C@@H](CCCCN)C(=O)N[C@@H](CCCCN)C(=O)N[C@@H](CCCNC(=N)N)C(=O)N[C@@H](CCCNC(=N)N)C(=O)N[C@@H](CCC(N)=O)C(=O)N[C@@H](CCCNC(=N)N)C(=O)N[C@@H](CCCNC(=N)N)C(=O)N[C@@H](CCCNC(=N)N)C(N)=O)NC1=O [ST-CY14] (H-CEGCKGF[S5]RRT[S5]RYYGRKKRRQRRR-NH2; staple 8-12), the “Effect on NanoBiT luminescence (Nur77-PPARγ complex)” value (Nur77-PPARγ complex) was “effectively inhibited the formation of the Nur77‐PPARγ complex”, the Scratch healing (MCF7 cells [1]) was “suppressed the scratch healing” and the Transwell transmigration (MCF7 cells [2]) was “inhibited the transmigration”. For the same compound, the solubility (Solubility test in PBS) was over 20 mg/mL, the “CD36 and FABP4 protein expression (immunoblot)” value (MCF7 cells [3]) was “inhibited the protein expression of CD36 and FABP4” and the “Nur77 protein expression (immunoblot)” value (MCF7 cells [3]) was “increase in Nur77 expression”. For the same compound, the “Improvement of proteolytic half-life versus T-CY14” value (α-chymotrypsin [4]) was “seventeen‐fold improvement” and the half-life at 90.9 µM (α-chymotrypsin [5]) was 1.46 h.
